{
  "source": "patent US10167258B2",
  "about": "“Inhibitors of mitochondrial pyruvate dehydrogenase kinase isoforms 1-4 and uses thereof” (The Board of Regents of the University of Texas System, priority 2013, dated 2019)",
  "key": {"[1]": {"tested_on": "PDC", "test": "PDC flux in perfused hearts from DIO mice by hyperpolarized 13C NMR", "conditions": "single dose 70 mg/kg IP, 8-hr", "experimental": "Metabolism of [1-^13C]pyruvate to [1-^13C]alanine, [1-^13C]lactate, H^13CO3^− and ^13CO2 were detected in real time by ^13C NMR spectra, following the injection of 2 mM HP [1-^13C]pyruvate into perfused heart (FIG. 10A)."}, "[2]": {"tested_on": "HeLa cells", "conditions": "read-out: IC50 for the growth inhibition of HeLa cells"}, "[3]": {"test": "Solubility in DMSO used in the formulation", "assay_type": "physicochemical", "conditions": "compared with PS8"}, "[4]": {"tested_on": "ChREBP", "test": "Hepatic nuclear ChREBP protein levels in PDK inhibitor-treated DIO mice", "assay_type": "in vivo", "conditions": "40 mg/kg/day by mini-pumps for 5 days", "text": "The antibody (from Santa Cruz) against the 95-kilodalton ChREBP is highly specific; no signal was detected in hepatic nuclear fractions from ChREBP KO mice. The reduced nuclear ChREBP protein levels correlate with curtailed liver-type pyruvate kinase (LPK) (FIG. 11B), the marker glycolytic enzyme tightly regulated by ChREBP^5. The increased PDC flux is indicated by diminished phosphorylation of the decarboxylase/dehydrogenase (E1)-α subunit of this enzyme complex (FIG. 11B); while the expression of this subunit is not affected (not shown). The glucose-sensitive transcription factor ChREBP discovered and cloned by the Uyeda group in 2001 (Yamashita et al., 2001) has emerged as a central regulator of lipogenesis in liver (Uyeda and Repa, 2006; Filhoulaud et al., 2013; Denechaud et al., 2008) and β-cells (Cha-Molstad et al., 2009; Kibbe et al., 2013) at the transcriptional level (Uyeda and Repa, 2006; Filhoulaud et al., 2013; Denechaud et al., 2008). […] Therefore, the inventors propose that increased glucose oxidation through PDC flux lowers hepatic glucose concentrations and attenuates nuclear ChREBP-mediated de novo lipogenesis in liver (FIG. 12A). […]"}, "[5]": {"tested_on": "DIO mice", "test": "Glucose tolerance test in DIO mice", "assay_type": "in vivo", "conditions": "70 mg/kg/day IP for 4 weeks, 1.5 g/kg glucose challenge", "method": "Six- to eight-week old C57BL/6J male mice were obtained from the local campus breeding colony at UT Southwestern Medical Center (Dallas, Tex.) and randomized into two groups: vehicle- and PS10-treated. Prior to the treatment, mice were fed with a 60% high-fat diet, which contained 32% saturated and 68% unsaturated fat (catalog number: D12492, Research Diet Inc. New Brunswick, N.J.), for eight to ten weeks to produce DIO animals. PS-10 was dissolved in 100% DMSO and then diluted to make a 10% DMSO aqueous solution containing 17.5% (w/v) (2-hydroxypropyl)-β-cyclodextrin for delivery. Animals were dosed at mid-day by intraperitoneal (IP) injections at 70 mg/kg using 1-ml syringe and 30-gauge needle. The length of the treatment is indicted in each experiment. At 10 h after the last injection, animals were euthanized using carbon dioxide asphyxiation followed by cervical dislocation and dissection. Blood was harvested by cardiac puncture and stored on ice. Acidified citrate dextrose (ACD) was used as an anticoagulant. Immediately after blood collection, heart, liver, kidneys and both hind-leg quadriceps muscles were removed and snap frozen in liquid nitrogen. Average ischemia time before organ harvest was about 2 to 3 min. Blood was centrifuged in an Eppendorf 5415R refrigerated microcentrifuge at 9,300×g for 5 min to isolate plasma, which was subsequently stored at −80° C.\nMice were fasted for 6 hours after compound treatment. Ten hours after compound administration, 1.5 g/kg of glucose was delivered intraperitoneally to mice. Tail vein serum samples were collected immediately before and 15, 30, 60 and 120 minutes after the glucose challenge. The glucose levels in serum samples were determined by a glucose meter."}, "[6]": {"molecular_target": "T1, N-terminal domain of human Hsp90 (Homo sapiens, UniProt P07900)", "T1 construct": "the N-terminal domain (residue 1-236) of human Hsp90; His6 (N); SUMO (N); made in house; host or cells: E. coli BL21", "test": "Isothermal titration calorimetry (ITC), binding to Hsp90 N-terminal domain", "conditions": "read-out: Kd, nM for Hsp 90", "method": "The sequence encoding the N-terminal domain was amplified and cloned into the pSUMO expression vector (Lifesensors, Malvern, Pa.). The fusion protein of His6-tagged SUMO-Hsp90 N-terminal domain was expressed in E. coli BL21 cells and purified with Ni-NTA resin (Qiagen) and on Superdex-200 column in 20 mM Tris.HCl, pH 7.5 and 500 mM NaCl.\nThe PDK2 or Hsp90 N-terminal domain protein was dialyzed against one liter of the dialysis buffer containing 50 mM Tris-Cl, pH 7.5, 50 mM KCl, 1 mM MgCl2, and 0.5 mM β-mercaptoethanol. […] All of the ITC data were initially analyzed by the NITPIC program (32) to construct the baseline, followed by curve-fitting in Origin 7 to obtain binding parameters."}},
  "note": "pIC50: −log10 of the molar value.",
  "data": [
    {"smiles": "O=S(=O)(c1ccc(O)cc1O)N1Cc2cc(O)cc(O)c2C1", "note": "[PS10, 2-((2,4-dihydroxyphenyl)sulfonyl)isoindoline-4,6-diol]", "values": [
      {"measurement": "cardiac PDC flux in DIO mice", "setting": "[1]", "value": "smaller increase"},
      {"measurement": "pIC50", "setting": "[2]", "value": 3.55},
      {"measurement": "solubility in DMSO", "setting": "[3]", "value": "better solubility in DMSO"},
      {"measurement": "ChREBP protein levels in hepatic nuclear fractions", "setting": "[4]", "value": "drastically decreased"},
      {"measurement": "plasma glucose level at 0 min", "setting": "[5]", "value": 168, "unit": "mg/dL"},
      {"measurement": "plasma glucose level at 30 min", "setting": "[5]", "value": 312, "unit": "mg/dL"},
      {"measurement": "plasma glucose level at 120 min", "setting": "[5]", "value": 163, "unit": "mg/dL"},
      {"measurement": "Kd", "setting": "[6]", "value": 47000, "unit": "nM"}
    ]}
  ]
}
